Data: patent US12570655B2, “Cysteine covalent modifiers of AKT1 and uses thereof” (Terremoto Biosciences, Inc., priority 2023, dated 2026)

Key:
Assay type in all cases: cell-based
AKT1 E17K = molecular target: T1, AKT1 E17K (Homo sapiens, UniProt P31749, E17K); assay: Live cell AKT1 E17K target engagement by NanoBRET competitive probe displacement; settings: HEK293 cells transfected with kinase-NanoLuciferase fusion, 2 h at 37° C.
T1 construct: expressed in transfected cells; host or cells: HEK293
Summary of the method: (§1)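 HEK293 cells transiently expressing kinase–NanoLuc fusions overnight; treated with serial compound dilutions plus fluorescent ATP-competitive tracer at ~EC50, 2 h at 37 °C. BRET ratio E600/E460 read after substrate and extracellular luciferase inhibitor; IC50 from log(inhibitor) vs response Hill fit.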

AKT2 = molecular target: T2, AKT2 (Homo sapiens, UniProt P31751); assay: Live cell AKT2 target engagement by NanoBRET competitive probe displacement; settings: HEK293 cells transfected with kinase-NanoLuciferase fusion, 2 h at 37° C.
T2 construct: expressed in transfected cells; host or cells: HEK293
Summary of the method: as §1

AKT1 WT = molecular target: T3, AKT1 WT (Homo sapiens, UniProt P31749); assay: Live cell AKT1 WT target engagement by NanoBRET competitive probe displacement; settings: HEK293 cells transfected with kinase-NanoLuciferase fusion, 2 h at 37° C.
T3 construct: expressed in transfected cells; host or cells: HEK293
Summary of the method: as §1

[1] = system: LAPC4 prostate cancer cells; assay: Antiproliferative effects in LAPC4 cells (CellTiter Glo); settings: Homo sapiens, LAPC4, 72 h, LAPC4 cells (AKT1 E17K allele), read-out: LAPC4 proliferation IC50
Summary of the method: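 LAPC4 prostate cancer cells carrying AKT1 E17K, grown in IMDM with 12% FBS, were seeded at 1,000 cells/well and exposed to compound dilutions for 72 h. Viability was read as intracellular ATP by CellTiter Glo luminescence, and IC50 was fitted with a log(inhibitor) vs. response Hill equation.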

T1 sequence (P31749 whole entry E17K, the tested form may be a part): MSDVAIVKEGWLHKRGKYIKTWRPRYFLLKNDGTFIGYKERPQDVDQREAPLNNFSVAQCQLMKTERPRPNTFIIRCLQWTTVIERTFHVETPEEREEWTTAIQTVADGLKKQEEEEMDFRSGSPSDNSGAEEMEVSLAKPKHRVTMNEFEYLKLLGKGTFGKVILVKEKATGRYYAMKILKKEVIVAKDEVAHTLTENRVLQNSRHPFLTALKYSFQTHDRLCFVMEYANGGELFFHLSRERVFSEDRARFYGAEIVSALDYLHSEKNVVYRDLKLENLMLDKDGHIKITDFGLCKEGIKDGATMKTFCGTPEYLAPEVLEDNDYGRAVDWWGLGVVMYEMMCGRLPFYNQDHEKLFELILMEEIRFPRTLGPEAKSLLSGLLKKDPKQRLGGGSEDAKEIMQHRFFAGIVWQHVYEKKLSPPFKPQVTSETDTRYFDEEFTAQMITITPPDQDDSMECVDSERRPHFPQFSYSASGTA
T2 sequence (P31751 whole entry, the tested form may be a part): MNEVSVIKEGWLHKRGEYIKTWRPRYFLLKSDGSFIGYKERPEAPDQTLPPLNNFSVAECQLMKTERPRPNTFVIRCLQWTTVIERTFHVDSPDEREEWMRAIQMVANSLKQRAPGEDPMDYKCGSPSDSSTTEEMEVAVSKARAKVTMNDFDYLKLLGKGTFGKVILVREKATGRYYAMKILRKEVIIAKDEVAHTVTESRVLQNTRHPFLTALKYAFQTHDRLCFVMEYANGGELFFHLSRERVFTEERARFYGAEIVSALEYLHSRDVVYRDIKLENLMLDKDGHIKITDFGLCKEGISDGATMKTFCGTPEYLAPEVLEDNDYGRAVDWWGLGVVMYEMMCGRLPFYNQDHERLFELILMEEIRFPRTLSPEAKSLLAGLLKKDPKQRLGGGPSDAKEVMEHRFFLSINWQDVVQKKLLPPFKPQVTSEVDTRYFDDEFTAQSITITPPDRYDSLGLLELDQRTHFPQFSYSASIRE
T3 sequence (P31749 whole entry, the tested form may be a part): as the sequence (P31749 whole entry E17K, the tested form may be a part) above, with K17E counted along it

SMILES: C=C(F)C(=O)N1CCc2c(C(=O)N[C@H]3CCc4cc(-n5c(-c6cccnc6N)nc6ccc(-n7cccn7)nc65)ccc43)cccc21 [Example 18, (S)-N-(5-(2-(2-aminopyridin-3-yl)-5-(1H-pyrazol-1-yl)-3H-imidazo[4,5-b]pyridin-3-yl)-2,3-dihydro-1H-inden-1-yl)-1-(2-fluoroacryloyl)indoline-4-carboxamide]
- IC50 (AKT1 E17K): 243 nM
- IC50 (AKT2): 208 nM
- IC50 (AKT1 WT): 61.5 nM
- IC50 [1]: 1570 nM

SMILES: C=CC(=O)Nc1ccccc1C(=O)N[C@H]1CCc2cc(-n3c(-c4cccnc4N)nc4ccc(-n5nccn5)nc43)ccc21 [Example 19, (S)-2-acrylamido-N-(5-(2-(2-aminopyridin-3-yl)-5-(2H-1,2,3-triazol-2-yl)-3H-imidazo[4,5-b]pyridin-3-yl)-2,3-dihydro-1H-inden-1-yl)benzamide]
- IC50 (AKT1 E17K): 27 nM
- IC50 (AKT2): 326 nM
- IC50 (AKT1 WT): 15.8 nM
- IC50 [1]: 88 nM

SMILES: C=CC(=O)Nc1ccc(F)cc1C(=O)N[C@H]1CCc2cc(-n3c(-c4cccnc4N)nc4ccc(-n5cccn5)nc43)ccc21 [Example 20, N-[(1S)-5-[2-(2-aminopyridin-3-yl)-5-(pyrazol-1-yl)imidazo[4,5-b]pyridin-3-yl]-2,3-dihydro-1H-inden-1-yl]-5-fluoro-2-(prop-2-enamido)benzamide]
- IC50 (AKT1 E17K): 9.64 nM
- IC50 (AKT2): 20.2 nM
- IC50 (AKT1 WT): 7.5 nM
- IC50 [1]: 18.3 nM

SMILES: C=CC(=O)Nc1cc(F)ccc1C(=O)N[C@H]1CCc2cc(-n3c(-c4cccnc4N)nc4ccc(-n5cccn5)nc43)ccc21 [Example 21, (S)-2-acrylamido-N-(5-(2-(2-aminopyridin-3-yl)-5-(1H-pyrazol-1-yl)-3H-imidazo[4,5-b]pyridin-3-yl)-2,3-dihydro-1H-inden-1-yl)-4-fluorobenzamide]
- IC50 (AKT1 E17K): 32.8 nM
- IC50 (AKT2): 74.8 nM
- IC50 (AKT1 WT): 22.6 nM
- IC50 [1]: 88.5 nM

SMILES: C=C(F)C(=O)Nc1ccccc1C(=O)N[C@H]1CCc2cc(-n3c(-c4cccnc4N)nc4ccc(-n5nccn5)nc43)ccc21 [Example 23, (S)-N-(5-(2-(2-aminopyridin-3-yl)-5-(2H-1,2,3-triazol-2-yl)-3H-imidazo[4,5-b]pyridin-3-yl)-2,3-dihydro-1H-inden-1-yl)-2-(2-fluoroacrylamido)benzamide]
- IC50 (AKT1 E17K): 135 nM
- IC50 (AKT2): 2250 nM
- IC50 (AKT1 WT): 50.1 nM
- IC50 [1]: 426 nM

SMILES: C=CS(=O)(=O)Nc1ccccc1C(=O)N[C@H]1CCc2cc(-n3c(-c4cccnc4N)nc4ccc(-n5cccn5)nc43)ccc21 [Example 24, (S)-N-(5-(2-(2-aminopyridin-3-yl)-5-(1H-pyrazol-1-yl)-3H-imidazo[4,5-b]pyridin-3-yl)-2,3-dihydro-1H-inden-1-yl)-2-(vinylsulfonamido)benzamide]
- IC50 (AKT1 E17K): 14.1 nM
- IC50 (AKT2): 37.9 nM
- IC50 (AKT1 WT): 12 nM
- IC50 [1]: 238 nM

SMILES: C=CC(=O)N1CCC[C@@H]1C(=O)N[C@H]1CCc2cc(-n3c(-c4cccnc4N)nc4ccc(-n5cccn5)nc43)ccc21 [Example 25]
- IC50 (AKT1 E17K): > 1000 nM
- IC50 (AKT2): > 10000 nM
- IC50 (AKT1 WT): > 1000 nM
- IC50 [1]: > 10000 nM

SMILES: C=CC(=O)N1CCC[C@H]1C(=O)N[C@H]1CCc2cc(-n3c(-c4cccnc4N)nc4ccc(-n5cccn5)nc43)ccc21 [Example 26, (S)-1-acryloyl-N—((S)-5-(2-(2-aminopyridin-3-yl)-5-(1H-pyrazol-1-yl)-3H-imidazo[4,5-b]pyridin-3-yl)-2,3-dihydro-1H-inden-1-yl)pyrrolidine-2-carboxamide]
- IC50 (AKT1 E17K): > 1000 nM
- IC50 (AKT2): > 10000 nM
- IC50 (AKT1 WT): > 1000 nM
- IC50 [1]: 2050 nM

SMILES: C=CC(=O)N1C2CCC1CC(N[C@H]1CCc3cc(-n4c(-c5cccnc5N)nc5ccc(-n6cccn6)nc54)ccc31)C2 (stereo partly drawn) [Example 27, 1-(3-(((S)-5-(2-(2-aminopyridin-3-yl)-5-(1H-pyrazol-1-yl)-3H-imidazo[4,5-b]pyridin-3-yl)-2,3-dihydro-1H-inden-1-yl)amino)-8-azabicyclo[3.2.1]octan-8-yl)prop-2-en-1-one]
- IC50 (AKT1 E17K): 107 nM
- IC50 (AKT2): 192 nM
- IC50 (AKT1 WT): 39.4 nM
- IC50 [1]: 425 nM

SMILES: C=CC(=O)N1CC(N[C@H]2CCc3cc(-n4c(-c5cccnc5N)nc5ccc(-n6cccn6)nc54)ccc32)C1 [Example 28, (S)-1-(3-((5-(2-(2-aminopyridin-3-yl)-5-(1H-pyrazol-1-yl)-3H-imidazo[4,5-b]pyridin-3-yl)-2,3-dihydro-1H-inden-1-yl)amino)azetidin-1-yl)prop-2-en-1-one]
- IC50 (AKT1 E17K): 81.6 nM
- IC50 (AKT2): 250 nM
- IC50 (AKT1 WT): 50.1 nM
- IC50 [1]: 216 nM

SMILES: C=CC(=O)N1CCC(C(=O)N[C@H]2CCc3cc(-n4c(-c5cccnc5N)nc5ccc(-n6cccn6)nc54)ccc32)CC1 [Example 29, N-[(1S)-5-[2-(2-aminopyridin-3-yl)-5-(pyrazol-1-yl)imidazo[4,5-b]pyridin-3-yl]-2,3-dihydro-1H-inden-1-yl]-1-(prop-2-enoyl)piperidine-4-carboxamide]
- IC50 (AKT1 E17K): 81.6 nM
- IC50 (AKT2): 250 nM
- IC50 (AKT1 WT): 50.1 nM
- IC50 [1]: 216 nM

SMILES: C=CC(=O)N1CCC2(CC1)CC(N[C@H]1CCc3cc(-n4c(-c5cccnc5N)nc5ccc(-n6cccn6)nc54)ccc31)C2 [Example 30, 1-(2-{[(1S)-5-[2-(2-aminopyridin-3-yl)-5-(pyrazol-1-yl)imidazo[4,5-b]pyridin-3-yl]-2,3-dihydro-1H-inden-1-yl]amino}-7-azaspiro[3.5]nonan-7-yl)prop-2-en-1-one]
- IC50 (AKT1 E17K): > 1000 nM
- IC50 (AKT2): 4830 nM
- IC50 (AKT1 WT): 296 nM
- IC50 [1]: 2600 nM

SMILES: C=CC(=O)N1CC2(CC(N[C@H]3CCc4cc(-n5c(-c6cccnc6N)nc6ccc(-n7cccn7)nc65)ccc43)C2)C1 [Example 31, 1-(6-{[(1S)-5-[2-(2-aminopyridin-3-yl)-5-(pyrazol-1-yl)imidazo[4,5-b]pyridin-3-yl]-2,3-dihydro-1H-inden-1-yl]amino}-2-azaspiro[3.3]heptan-2-yl)prop-2-en-1-one]
- IC50 (AKT1 E17K): 12.6 nM
- IC50 (AKT2): 57.9 nM
- IC50 (AKT1 WT): 12.9 nM
- IC50 [1]: 30.8 nM

SMILES: C=CC(=O)N1CC2(CCC(N[C@H]3CCc4cc(-n5c(-c6cccnc6N)nc6ccc(-n7cccn7)nc65)ccc43)CC2)C1 [Example 32, 1-(7-{[(1S)-5-[2-(2-aminopyridin-3-yl)-5-(pyrazol-1-yl)imidazo[4,5-b]pyridin-3-yl]-2,3-dihydro-1H-inden-1-yl]amino}-2-azaspiro[3.5]nonan-2-yl)prop-2-en-1-one]
- IC50 (AKT1 E17K): 10.1 nM
- IC50 (AKT2): 41.6 nM
- IC50 (AKT1 WT): 13.1 nM
- IC50 [1]: 14.1 nM

SMILES: C=CC(=O)N1CCC(N[C@H]2CCc3cc(-n4c(-c5cccnc5N)nc5ccc(-n6nccn6)nc54)ccc32)CC1 [Example 33, 1-(4-{[(1S)-5-[2-(2-aminopyridin-3-yl)-5-(1,2,3-triazol-2-yl)imidazo[4,5-b]pyridin-3-yl]-2,3-dihydro-1H-inden-1-yl]amino}piperidin-1-yl)prop-2-en-1-one]
- IC50 (AKT1 E17K): 20.7 nM
- IC50 (AKT2): 152 nM
- IC50 (AKT1 WT): 21.2 nM
- IC50 [1]: 52 nM

SMILES: CN(C)C/C=C/C(=O)N1CCC(N[C@H]2CCc3cc(-n4c(-c5cccnc5N)nc5ccc(-n6cccn6)nc54)ccc32)CC1 [Example 34, (2E)-1-(4-{[(1S)-5-[2-(2-aminopyridin-3-yl)-5-(pyrazol-1-yl)imidazo[4,5-b]pyridin-3-yl]-2,3-dihydro-1H-inden-1-yl]amino}piperidin-1-yl)-4-(dimethylamino)but-2-en-1-one]
- IC50 (AKT1 E17K): 194 nM
- IC50 (AKT2): 1200 nM
- IC50 (AKT1 WT): 55.1 nM
- IC50 [1]: 398 nM

SMILES: C=C(F)C(=O)Nc1cnn(C)c1C(=O)N[C@H]1CCc2cc(-n3c(-c4cccnc4N)nc4ccc(-n5cccn5)nc43)ccc21 [Example 35, (S)-N-(5-(2-(2-aminopyridin-3-yl)-5-(1H-pyrazol-1-yl)-3H-imidazo[4,5-b]pyridin-3-yl)-2,3-dihydro-1H-inden-1-yl)-4-(2-fluoroacrylamido)-1-methyl-1H-pyrazole-5-carboxamide]
- IC50 (AKT1 E17K): > 1000 nM
- IC50 (AKT2): 2940 nM
- IC50 (AKT1 WT): 243 nM
- IC50 [1]: 5660 nM

SMILES: C=C(F)C(=O)Nc1cn(C)nc1C(=O)N[C@H]1CCc2cc(-n3c(-c4cccnc4N)nc4ccc(-n5cccn5)nc43)ccc21 [Example 36, (S)-N-(5-(2-(2-aminopyridin-3-yl)-5-(1H-pyrazol-1-yl)-3H-imidazo[4,5-b]pyridin-3-yl)-2,3-dihydro-1H-inden-1-yl)-4-(2-fluoroacrylamido)-1-methyl-1H-pyrazole-3-carboxamide]
- IC50 (AKT1 E17K): 179 nM
- IC50 (AKT2): 982 nM
- IC50 (AKT1 WT): 64.5 nM
- IC50 [1]: 533 nM

SMILES: Nc1ncccc1-c1nc2ccc(-n3cccn3)nc2n1-c1ccc2c(c1)CC[C@@H]2NC(=O)c1ccccc1NC(=O)C1=CCCC1 [Example 37, (S)-N-(5-(2-(2-aminopyridin-3-yl)-5-(1H-pyrazol-1-yl)-3H-imidazo[4,5-b]pyridin-3-yl)-2,3-dihydro-1H-inden-1-yl)-2-(cyclopent-1-ene-1-carboxamido)benzamide]
- IC50 (AKT1 E17K): 246 nM
- IC50 (AKT2): 738 nM
- IC50 (AKT1 WT): 93 nM
- IC50 [1]: 581 nM

SMILES: C=C(Cl)C(=O)Nc1ccccc1C(=O)N[C@H]1CCc2cc(-n3c(-c4cccnc4N)nc4ccc(-n5cccn5)nc43)ccc21 [Example 38, (S)-N-(5-(2-(2-aminopyridin-3-yl)-5-(1H-pyrazol-1-yl)-3H-imidazo[4,5-b]pyridin-3-yl)-2,3-dihydro-1H-inden-1-yl)-2-(2-chloroacrylamido)benzamide]
- IC50 (AKT1 E17K): 881 nM
- IC50 (AKT2): 2090 nM
- IC50 (AKT1 WT): 204 nM
- IC50 [1]: > 10000 nM
